We go through two compounds from US20180271888A1, “COMPOSITIONS AND METHODS FOR PARKINSON'S DISEASE THERAPY” (priority 2017, published 2018).

For data set [1] the following is noted: cited from earlier work.
The test system of data set [2] is DARPP-32. The data set can be described thus: Western immunoblotting of total and phosphorylated DARPP-32 in striatum after IVM. In kind it is in vivo, mouse. The protocol:
(§1) The dorsal and ventral striata were dissected from P2X4R KO and WT mice following killing with CO2 asphyxiation. […] The dorsal and ventral striata were dissected out as per the neuroanatomical landmarks described in the mouse brain atlas (Franklin, B. J. and Paxinos, G. (2007) The Mouse Brain in Stereotaxic Coordinates. Elsevier Academic Press, Amsterdam). The brain tissues were homogenized in a buffer containing 50 mM Tris-HCl pH (8.0), 150 mM NaCl, 1 mM EDTA, 0.1% sodium dodecyl sulfate, 1/100 dilution proteinases inhibitor cocktail (Millipore, Temecula, Calif., USA), and protein content was determined using bicinchoninic acid assay kit (Thermo Scientific, Rockford, Ill., USA). Homogenates were treated with a cocktail of phosphatase inhibitors (1 mM sodium pyrophosphate, 10 mM sodium fluoride, 0.5 mM sodium orthovandate, 10 mM β-glycerol phosphate, 1 μM microcysteine LR) (Sigma-Aldrich) for detection of phosphoproteins.
Protein samples of 50 lg ran on 10% sodium dodecyl sulfate-polyacrylamide gel electrophoresis gels and transferred onto polyvinylidine diflouride membranes using semi-dry transfer method (Trans turbo blot; BioRad Laboratories, Hercules, Calif., USA). Striatal samples from WT and P2X4R KO mice were made to run on the same gel and transferred onto the same membrane. Nonspecific binding was blocked by incubation in 5% non-fat dry milk, followed by incubation with primary antibodies overnight at 4° C. The antibodies used were rabbit anti-TH (1:5000), mouse anti-DAT (1:1000), rabbit anti-D2 receptor (1:1000), rabbit anti-DARPP-32 (1:1000) (Millipore), rabbit anti-D1 receptor (1:500; SantaCruz biotechnology, Santacruz, Calif., USA), mouse anti-total ERK 1/2 (1:1000), rabbit anti-total CREB (1:1000) (Cell Signaling Technology, Beverly, Mass., USA), mouse anti-β-actin (1:20 000; Sigma-Aldrich), and mouse anti-α-tubulin (1:10 000; Millipore). The antibodies for phospho proteins included rabbit antiphospho-Thr34-DARPP-32 (1:400; Millipore), rabbit anti-phospho-Ser133-CREB (1:500), rabbit anti-diphospho-Thr202/Tyr204-ERK 1/2 (1:500) (Cell Signaling Technology). Secondary antibodies included goat anti-mouse and goat anti-rabbit antibodies (1:10 000; BioRad Laboratories). Bands were visualized using chemiluminescence method (Clarity western plus enhanced chemiluminescence substrate; BioRad Laboratories) followed by exposure to HyBlot autoradiography films (Denville Scientific, Metuchen, N.J., USA). Protein quantification was carried out by optical densitometry using ImageJ software (NIH, Bethesda, Md., USA). Protein densities were normalized to β-actin or α-tubulin levels.
(§2) For the western blotting analysis, the average of densitometry values of WT striatal samples was used to arbitrarily normalize WT samples to 1 and the P2X4R KO striatal samples were normalized by dividing each densitometry value by the average of WT samples. […] Normalized density of proteins was expressed as mean±SEM. Phosphorylation was calculated as ratio of normalized values of phosphorylated form to total form of protein. DA levels were expressed as ng/mg of protein content. […] Pharmacological studies for motor behavior and sensorimotor gating were analyzed by two-way repeated measures ANOVA with time/PPI intensity and genotype/treatment as within and between-subjects variability, respectively, followed by Bonferroni post hoc test for multiple comparisons. […]

Data set [3] has as its system 6-OHDA lesioned WT and P2X4R KO mice. Briefly: L-DOPA-induced rotational behavior in the 6-OHDA model of DA depletion (Example 1). The data set is classed as in vivo, mouse. The protocol: Mice were treated with desipramine hydrochloride (25 mg/kg, i.p.) (Sigma-Aldrich) 30 min prior to surgery to prevent concurrent damage of noradrenergic pathways by 6-OHDA. Mice were anesthetized with avertin ([…], i.p.) and placed in the stereotaxic apparatus. Two μL of freshly prepared 6-OHDA bromide salt (4 mg/mL in 0.2% ascorbic acid and 0.9% saline; Sigma-Aldrich) was unilaterally infused into left median forebrain bundle (from Bregma point: 1.2 mm posterior, 1.1 mm lateral, 5 mm ventral) (Franklin, B. J. and Paxinos, G. (2007) The Mouse Brain in Stereotaxic Coordinates. Elsevier Academic Press, Amsterdam) at a rate of 0.5 μL/min using a 10 μL Hamilton syringe and a microlitre syringe pump. The injection cannula was left in place for 3-5 min to prevent reflux and ensure complete absorption. Post-operative procedures involved daily subcutaneous (s.c.) injections with sucrose (5% w/v in saline) and warming on a heating pad for 2 weeks.
Mice were subjected to behavioral testing 3 weeks after 6-OHDA lesioning surgery. Mice were placed in a plastic cylinder (318 mm in diameter) with a video camera mounted above it. Baseline rotational behavior was established by saline injections which causes the mouse to rotate toward the lesioned side with lesser DA activity (ipsilateral rotations). L-DOPA (5 mg/kg, s.c.) was administered 5 min prior to behavioral testing and the number of contralateral and ipsilateral rotations were counted in every 10-minute interval for a total period of 90 min.
For the western blotting analysis, the average of densitometry values of WT striatal samples was used to arbitrarily normalize WT samples to 1 and the P2X4R KO striatal samples were normalized by dividing each densitometry value by the average of WT samples. Normalization of the two genotypes was done within the same membrane and presented as fold change of P2X4R KO versus WT in that membrane. For D1, D2, DARPP-32, ERK 1/2, and CREB immunoblotting; WT and P2X4R KO mice were generated in separate cohorts. The normalization of P2X4R KO to WT samples was done within the same cohort followed by combining data from two cohorts for analyses. […] Normalized density of proteins was expressed as mean±SEM. Phosphorylation was calculated as ratio of normalized values of phosphorylated form to total form of protein. DA levels were expressed as ng/mg of protein content. Unpaired Student t-test was used for analyzing the differences in protein densities and DA levels between WT and P2X4R KO groups. […] Pharmacological studies for motor behavior and sensorimotor gating were analyzed by two-way repeated measures ANOVA with time/PPI intensity and genotype/treatment as within and between-subjects variability, respectively, followed by Bonferroni post hoc test for multiple comparisons. Significance was set at p<0.05. All data were analyzed using GraphPad Prism software (San Diego, Calif., USA).

In data set [4] the test system is ERK 1/2. Briefly: Western immunoblotting of total and phosphorylated ERK 1/2 in striatum after IVM. In kind it is in vivo, mouse. How it is done:
as §1
(§3) Protein samples of 50 lg ran on 10% sodium dodecyl sulfate-polyacrylamide gel electrophoresis gels and transferred onto polyvinylidine diflouride membranes using semi-dry transfer method (Trans turbo blot; BioRad Laboratories, Hercules, Calif., USA). Striatal samples from WT and P2X4R KO mice were made to run on the same gel and transferred onto the same membrane. Nonspecific binding was blocked by incubation in 5% non-fat dry milk, followed by incubation with primary antibodies overnight at 4° C. The antibodies used were rabbit anti-TH (1:5000), mouse anti-DAT (1:1000), rabbit anti-D2 receptor (1:1000), rabbit anti-DARPP-32 (1:1000) (Millipore), rabbit anti-D1 receptor (1:500; SantaCruz biotechnology, Santacruz, Calif., USA), mouse anti-total ERK 1/2 (1:1000), rabbit anti-total CREB (1:1000) (Cell Signaling Technology, Beverly, Mass., USA), mouse anti-β-actin (1:20 000; Sigma-Aldrich), and mouse anti-α-tubulin (1:10 000; Millipore). […] Protein quantification was carried out by optical densitometry using ImageJ software (NIH, Bethesda, Md., USA). […]
as §2
Background: Immunoblotting shows a protein as a band on a membrane.

In data set [5] the test system is WT and P2X4R KO mice. To be noted: Bortolato et al. 2013, cited from earlier work.
The subject of data set [6] is CREB. The data set can be described thus: Western immunoblotting of total and phosphorylated CREB in striatum after IVM. The data set is classed as in vivo, mouse. The conditions noted are these: effect of IVM treatment 5 mg/kg. How it is done:
as §1, §3, §2

[7] abbreviates: ventral striatum, main effect of IVM treatment 5 mg/kg, treatment×genotype interaction significant (p<0.05).
Setting [8] is: ventral striatum, effect of IVM treatment 5 mg/kg.

Like-named read-outs stand apart in the source and are kept apart here.

For `C[C@@](Cc1ccc(O)c(O)c1)(NN)C(=O)O.O` [Carbidopa, N-amino-α-methyl-3-hydroxy-L-tyrosine monohydrate], the solubility in water entry in data set [1] was “slightly soluble”.

`CC[C@H](C)[C@H]1O[C@]2(CC[C@@H]1C)C[C@@H]1C[C@@H](C/C=C(\C)[C@@H](O[C@H]3C[C@H](OC)[C@@H](O[C@H]4C[C@H](OC)[C@@H](O)[C@H](C)O4)[C@H](C)O3)[C@@H](C)/C=C/C=C3\CO[C@@H]4[C@H](O)C(C)=C[C@@H](C(=O)O1)[C@]34O)O2` [IVM, ivermectin]: the DARPP-32 phosphorylation entry is “did not increase” in data set [2] (dorsal striatum, P2X4R KO mice, IVM 5 mg/kg i.p., 8 h post-drug); “significant increase” in data set [2] (dorsal striatum, WT mice, IVM 5 mg/kg i.p., 8 h post-drug, vs vehicle, Bonferroni p<0.05); “no significant effect” in data set [2] (setting [7]). Moreover, the “total DARPP-32 levels” value in data set [2] (dorsal striatum, main effect of IVM treatment (5 mg/kg i.p.), treatment×genotype interaction significant) was “no significant effect”; in data set [2] (setting [7]) it was “no significant effect”. Moreover, the “L-DOPA induced motor behavior (contralateral rotations)” value in data set [3] (6-OHDA P2X4R KO mice, IVM 5 mg/kg + L-DOPA 5 mg/kg vs L-DOPA alone, during the 5-15 min interval) is “significant increase”. Also, in data set [3] (6-OHDA WT mice, IVM 5 mg/kg i.p. 8 h prior + L-DOPA 5 mg/kg s.c. vs L-DOPA alone, significant 5-65 min), the “number of L-DOPA-induced rotations (contralateral)” value is reported as “significantly increased”. For the same compound, in data set [3] (6-OHDA WT mice, IVM 5 mg/kg i.p. 8 h prior, average for 2 hours, SEM ±2, significant vs sham controls), the “rotations induced by IVM alone (ipsilateral)” value is listed as 12 rotations. Further, the “ERK 1/2 phosphorylation” value in data set [4] (dorsal striatum, IVM 5 mg/kg, both genotypes (independent of P2X4R function)) is recorded as “increased”; in data set [4] (setting [8]), “no significant effect”. Also, the “total ERK 1/2 levels” value is reported as “no significant effect” in data set [4] (dorsal striatum, main effect of IVM treatment, treatment×genotype interaction significant) and “no significant effect” in data set [4] (setting [8]). The “PPI (effect of IVM)” value was “attenuated response” in data set [5] (P2X4R KO mice) and “PPI disruption” in data set [5] (WT C57BL/6J mice). The CREB phosphorylation result in data set [6] (dorsal striatum) is recorded as “no significant effect”; in data set [6] (ventral striatum, interaction trended toward significance), “no significant effect”. For the same compound, the “total CREB levels” value in data set [6] (dorsal striatum) and in data set [6] (ventral striatum) was “no significant effect” in each case.
